Reference: patent US11512069B2, “TLR7/8 antagonists and uses thereof” (Merck Patent GmbH, priority 2016, dated 2022)

Biological target: T1, TLR7 (Homo sapiens, UniProt Q9NYK1)
T1 construct: expressed in transfected cells; host or cells: HEK cells carrying TLR7 and an NF-kB reporter read with Steady-Glo
T1 sequence (Q9NYK1 27-1049): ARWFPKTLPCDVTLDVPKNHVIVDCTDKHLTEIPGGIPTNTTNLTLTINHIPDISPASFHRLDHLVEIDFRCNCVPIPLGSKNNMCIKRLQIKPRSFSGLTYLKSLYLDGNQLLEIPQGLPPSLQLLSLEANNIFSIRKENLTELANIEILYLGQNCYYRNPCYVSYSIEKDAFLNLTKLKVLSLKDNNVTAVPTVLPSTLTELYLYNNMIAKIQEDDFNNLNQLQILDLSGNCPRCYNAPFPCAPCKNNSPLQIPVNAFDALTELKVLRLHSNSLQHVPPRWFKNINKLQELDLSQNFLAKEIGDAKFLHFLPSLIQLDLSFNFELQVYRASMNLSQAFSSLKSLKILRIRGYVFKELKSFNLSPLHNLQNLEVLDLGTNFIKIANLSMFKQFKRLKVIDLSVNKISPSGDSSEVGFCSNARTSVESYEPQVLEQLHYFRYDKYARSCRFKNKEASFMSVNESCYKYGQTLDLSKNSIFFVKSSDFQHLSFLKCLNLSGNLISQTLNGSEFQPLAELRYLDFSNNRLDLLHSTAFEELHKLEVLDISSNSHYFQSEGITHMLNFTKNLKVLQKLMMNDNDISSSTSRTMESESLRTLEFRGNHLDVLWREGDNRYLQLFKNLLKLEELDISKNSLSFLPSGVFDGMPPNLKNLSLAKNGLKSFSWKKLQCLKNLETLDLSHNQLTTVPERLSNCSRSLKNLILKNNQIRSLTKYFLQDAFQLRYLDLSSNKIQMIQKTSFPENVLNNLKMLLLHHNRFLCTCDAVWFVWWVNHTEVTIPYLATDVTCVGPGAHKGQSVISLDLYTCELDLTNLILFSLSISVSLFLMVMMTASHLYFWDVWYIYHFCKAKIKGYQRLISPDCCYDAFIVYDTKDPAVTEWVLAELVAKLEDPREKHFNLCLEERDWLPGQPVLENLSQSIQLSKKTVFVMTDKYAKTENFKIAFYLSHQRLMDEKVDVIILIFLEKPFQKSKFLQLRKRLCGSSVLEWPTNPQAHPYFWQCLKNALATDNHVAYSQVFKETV
Test: HEK Cell Assay (TLR7/NFKb HEK reporter cells, Steady-Glo)
Assay type: cell-based
Details: compound 30 min, then R*48 agonist 5 hours, Steady-Glo readout, read-out: Potency
Procedure: Example 32: HEK Cell Assay
Into 384 CulturePlates (Corning 3707) was placed 5000 c/w of TLR7/NFKb HEK cells in 30 uL DMEM without Phenil red (gibco #31053) and 10% i.a. FCS and 2 mM L-ZGLutamin. The cells were incubated for 24 h at 37 degrees Celsius, 10% carbon dioxide and 90% relative humidity, 3 uL of controls, standards, and compounds were dispensed to wells, incubated for 30 min then 3 uL of R*48 agonist in 20 mM Hepes was added. After incubation for 5 hours, it was allowed to stand at room temperature for 15 min, 10 uL of Steady-Glo substrate reagent was added and shake assay plate for 5 min at 1500 rpm. The assay plate was allowed to sit for 30 min at room temperature and then read plate on EnVision.

`C[C@H]1C[C@@H](NC(=O)CN2CCCCC2)C[C@@H](c2ccc(C#N)c3nccnc23)C1` (racemic) [Compound 157, N-[(cis-1,3,5)-3-(8-cyanoquinoxalin-5-yl)-5-methylcyclohexyl]-2-(piperidin-1-yl)acetamide] and `C[C@H]1C[C@@H](NC(=O)CN2CCN(C)CC2)C[C@@H](c2ccc(C#N)c3nccnc23)C1` (racemic) [Compound 158, N-[(cis-1,3,5)-3-(8-cyanoquinoxalin-5-yl)-5-methylcyclohexyl]-2-(4-methylpiperazin-1-yl)acetamide] cannot be ordered by IC50: under 1 µM for the first, under 1 µM for the second.

First: COCCN[C@@H]1C[C@H](C)C[C@H](c2ccc(F)c3nccnc23)C1 (racemic) [Compound 159, (cis-1,3,5)-3-(8-fluoroquinoxaline-5-yl)-N-(2-methoxyethyl)-5-methylcyclohexan-1-amine]
Second: C[C@@H]1C[C@H](c2ccc(C(F)(F)F)c3ncccc23)CN(CCO)C1 (relative stereo) [Compound 7]
The IC50 of the first is lower: 1 to 20 µM for the first, over 20 µM for the second. The first is the more potent here.

`C[C@@H]1C[C@H](c2ccc(C(F)(F)F)c3ncccc23)CN(C)C1` (relative stereo) [Compound 5] and `C[C@@H]1C[C@@H](c2ccc(C(F)(F)F)c3ncccc23)CN(C)C1` (relative stereo) [Compound 6] cannot be ordered by IC50: over 20 µM for the first, over 20 µM for the second.

`C[C@@H]1C[C@@H](c2ccc(C(F)(F)F)c3ncccc23)CN(CCO)C1` (relative stereo) [Compound 8] and `CC(=O)N1C[C@@H](C)C[C@H](c2ccc(C(F)(F)F)c3ncccc23)C1` (relative stereo) [Compound 9, trans-1-[3-Methyl-5-(8-trifluoromethyl-quinolin-5-yl)-piperidin-1-yl]-ethanone] cannot be ordered by IC50: over 20 µM for the first, over 20 µM for the second.

First: CC(=O)N1C[C@H](C)C[C@H](c2ccc(C(F)(F)F)c3ncccc23)C1 (relative stereo) [Compound 10, cis-1-[3-Methyl-5-(8-trifluoromethyl-quinolin-5-yl)-piperidin-1-yl]-ethanone]
Second: C[C@@H]1C[C@H](c2ccc(C(F)(F)F)c3ncccc23)CN(C(=O)NC2CC2)C1 (relative stereo) [Compound 40, cis-Cyclopropyl-3-methyl-5-[8-(trifluoromethyl)-5-quinolyl] piperidine-1-carboxamide]
The IC50 of the first is higher: over 20 µM for the first, 1 to 20 µM for the second. The second is the more potent here.

`C[C@@H]1C[C@@H](c2ccc(C(F)(F)F)c3ncccc23)CN(C(=O)CCn2cccn2)C1` (relative stereo) [Compound 13] and `C[C@@H]1C[C@H](c2ccc(C(F)(F)F)c3ncccc23)CN(C(=O)Cn2cccn2)C1` (relative stereo) [Compound 14] cannot be ordered by IC50: over 20 µM for the first, over 20 µM for the second.

`C[C@@H]1C[C@@H](c2ccc(C(F)(F)F)c3ncccc23)CN(C(=O)Cn2cccn2)C1` (relative stereo) [Compound 15] and `C[C@@H]1C[C@H](c2ccc(C(F)(F)F)c3ncccc23)CN(C(=O)CN2CCOCC2)C1` (relative stereo) [Compound 16] cannot be ordered by IC50: over 20 µM for the first, over 20 µM for the second.

`C[C@@H]1C[C@H](c2ccc(C#N)c3ncccc23)CN(C(=O)Cc2cccnc2)C1` (relative stereo) [Compound 20] and `C[C@@H]1C[C@H](c2ccc(C#N)c3ncccc23)CN(C(=O)CCc2cccnc2)C1` (relative stereo) [Compound 24] cannot be ordered by IC50: over 20 µM for the first, over 20 µM for the second.

Compared with `C[C@@H]1C[C@H](c2ccc(C#N)c3ncccc23)CN(C(=O)CC(F)(F)F)C1` (relative stereo) [Compound 26], `C[C@@H]1C[C@H](c2ccc(C#N)c3ncccc23)CN(C(=O)CC2CC2)C1` (relative stereo) [Compound 28, Cis 5-[1-(2-Cyclopropyl-acetyl)-5-methyl-piperidin-3-yl]-quinoline-8-carbonitrile] is lower in IC50: over 20 µM for the first, 1 to 20 µM for the second. The second is the more potent here.

`C[C@@H]1C[C@H](c2ccc(C#N)c3ncccc23)CN(C(=O)CN2CCN(C)CC2)C1` (relative stereo) [Compound 29] and `C[C@@H]1C[C@@H](c2ccc(C#N)c3ncccc23)CN(C(=O)CN2CCN(C)CC2)C1` (relative stereo) [Compound 30] cannot be ordered by IC50: under 1 µM for the first, under 1 µM for the second.

`C[C@@H]1C[C@H](c2ccc(C#N)c3ncccc23)CN(C(=O)C2CN(C)C2)C1` (relative stereo) [Compound 31] and `C[C@@H]1C[C@@H](c2ccc(C#N)c3ncccc23)CN(C(=O)C2CN(C)C2)C1` (relative stereo) [Compound 32] fall in the same range of IC50: 1 to 20 µM for the first, 1 to 20 µM for the second.

`C[C@@H]1C[C@H](c2ccc(C#N)c3ncccc23)CN(C(=O)CN2CCC2)C1` (relative stereo) [Compound 33] and `C[C@@H]1C[C@H](c2ccc(C#N)c3ncccc23)CN(C(=O)CC2(N)CC2)C1` (relative stereo) [Compound 62, Cis-1-[2-(1-Amino-cyclopropyl)-acetyl]-5-methyl-piperidin-3-yl-quinoline-8-carbonitrile] fall in the same range of IC50: 1 to 20 µM for the first, 1 to 20 µM for the second.

`C[C@@H]1C[C@H](c2ccc(C#N)c3ncccc23)CN(C(=O)CC2CN(C)C2)C1` (relative stereo) [Compound 34, cis-1-Methyl-1-[2-(1-methyl-azetidin-3-yl)-acetyl]-piperidin-3-yl-quinoline-8-carbonitrile] and `C[C@H]1C[C@H](c2ccc(C#N)c3ncccc23)CN(C(=O)CC2(N)CC2)C1` (relative stereo) [Compound 63, Trans-1-[2-(1-Amino-cyclopropyl)-acetyl]-5-methyl-piperidin-3-yl-quinoline-8-carbonitrile] fall in the same range of IC50: 1 to 20 µM for the first, 1 to 20 µM for the second.

`C[C@@H]1C[C@H](c2ccc(C#N)c3ncccc23)CN(C(=O)c2ccc(N3CCC3)nc2)C1` (relative stereo) [Compound 36, cis-5-[1-(6-Azetidin-1-yl-pyridine-3-carbonyl)-5-methyl-piperidin-3-yl]-quinoline-8-carbonitrile] and `C[C@@H]1C[C@H](c2ccc(C#N)c3ncccc23)CN(C(=O)c2cc3n(n2)CCC3)C1` (relative stereo) [Compound 38, cis-5-[1-(5,6-Dihydro-4H-pyrrolo[1,2-b]pyrazole-2-carbonyl)-5-methyl-piperidin-3-yl]-quinoline-8-carbonitrile] cannot be ordered by IC50: over 20 µM for the first, over 20 µM for the second.

First: C[C@@H]1C[C@H](c2ccc(C#N)c3ncccc23)CN(C(=O)C2CCC(F)(F)CC2)C1 (relative stereo) [Compound 37, cis-5-[1-(4,4-Difluoro-cyclohexanecarbonyl)-5-methyl-piperidin-3-yl]-quinoline-8-carbonitrile]
Second: C[C@@H]1C[C@H](c2ccc(C#N)c3ncccc23)CN(C(=O)C2CCN(C)CC2)C1 (relative stereo) [Compound 39, cis-5-[5-Methyl-1-(1-methyl-piperidine-4-carbonyl)-piperidin-3-yl]-quinoline-8-carbonitrile]
The IC50 of the first is higher: over 20 µM for the first, 1 to 20 µM for the second.

`C[C@@H]1C[C@@H](c2ccc(C(F)(F)F)c3ncccc23)CN(C(=O)NC2CC2)C1` (relative stereo) [Compound 41, trans-Cyclopropyl-3-methyl-5-[8-(trifluoromethyl)-5-quinolyl] piperidine-1-carboxamide] and `C[C@@H]1C[C@H](c2ccc(C#N)c3ncccc23)CN(CC(=O)NC2CCN(C)CC2)C1` (relative stereo) [Compound 68, cis-2-[3-(8-Cyano-quinolin-5-yl)-5-methyl-piperidin-1-yl]-N-(1-methyl-piperidin-4-yl)-acetamide] fall in the same range of IC50: 1 to 20 µM for the first, 1 to 20 µM for the second.

`C[C@H]1C[C@H](c2ccc(C#N)c3ncccc23)CN(CC(N)=O)C1` (relative stereo) [Compound 66] and `C[C@@H]1C[C@H](c2ccc(C#N)c3ncccc23)CN(CC(N)=O)C1` (relative stereo) [Compound 67] cannot be ordered by IC50: over 20 µM for the first, over 20 µM for the second.

`C[C@@H]1C[C@@H](c2ccc(C#N)c3ncccc23)CN(CC(=O)NC2CCN(C)CC2)C1` (relative stereo) [Compound 69, trans-2-[3-(8-Cyano-quinolin-5-yl)-5-methyl-piperidin-1-yl]-N-(1-methyl-piperidin-4-yl)-acetamide] and `C[C@@H]1C[C@H](c2ccc(C#N)c3ncccc23)CN(CC(=O)N2CCC(N(C)C)CC2)C1` (relative stereo) [Compound 70, cis-5-(1-{2-[4-(dimethylamino)piperidin-1-yl]-2-oxoethyl}-5-methylpiperidin-3-yl) quinoline-8-carbonitrile] fall in the same range of IC50: 1 to 20 µM for the first, 1 to 20 µM for the second.
